Results from PubChem BioAssay (NCI).
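Briefly, cells in 96-well plates were exposed to five compound concentrations for 48 h, and endpoints were estimated by linear interpolation. Here, GI50 denotes the concentration required for 50% inhibition of growth. TGI marks complete inhibition of growth.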

Assays:
Test in all cases: NCI tumour cell line growth inhibition, 48 h
[1] = test system: BT-549 breast
[2] = test system: DU-145 prostate
[3] = test system: T-47D breast
[4] = test system: XF 498 CNS
[5] = test system: DLD-1 colon
[6] = test system: DMS 114 small cell lung
[7] = test system: LXFL 529 NSCLC
[8] = test system: MDA-N
[9] = test system: RXF-631 renal

`CC(C)(C)c1nc(-c2cccc(NS(=O)(=O)c3c(F)cccc3F)c2F)c(-c2ccnc(N)n2)s1` gave a GI50 [1] of 37.5 µM, a TGI [1] of over 72.1 µM and a GI50 [2] of 58.5 µM. The TGI [2] was over 100 µM, the GI50 [3] was 25.9 µM and the TGI [3] was 99 µM.
`COC(=O)N/N=C(\C)C(CN(C)C)C(c1ccccc1)c1c(O)c2ccccc2oc1=O` (centres undefined) gave a TGI [4] of over 100 µM, a TGI [5] of over 100 µM and a TGI [6] of over 100 µM. For the same compound, the TGI [7] was over 100 µM.
Work on `CCc1nc2cc(/C=C/C(=O)NO)ccc2c(=O)n1CCc1ccc(OC)cc1` yielded a GI50 [1] of 4.02 µM, a TGI [1] of 34.6 µM and a GI50 [2] of 2.19 µM. For the same compound, the TGI [2] was 10.3 µM, the GI50 [3] was 1.57 µM and the TGI [3] was 7.13 µM.
`COc1ccc2nc3cccc([N+](=O)[O-])c3c(NCCNCCN(C)C)c2c1` showed a GI50 [1] of 0.418 µM, a TGI [1] of 1.06 µM and a GI50 [2] of 0.0374 µM. For the same compound, the TGI [2] was 0.909 µM, the GI50 [8] was 0.176 µM and the TGI [8] was 0.502 µM. It also gave a GI50 [3] of 0.168 µM and a TGI [3] of 7.93 µM.
`CCOC(=O)C1=C(C(=O)OCC)C2(c3ccccc3)N(O1)c1ccccc1C2(C)C` (centres undefined) gave a TGI [5] of over 100 µM and a TGI [7] of over 100 µM.
With `O=C(/C=C\n1cnc(-c2cc(C(F)(F)F)cc(C(F)(F)F)c2)n1)N1CC(F)(F)C1` the GI50 [1] was 0.0336 µM, the TGI [1] was 0.223 µM and the GI50 [2] was 1.69 µM. For the same compound, the TGI [2] was 12.1 µM, the GI50 [3] was 0.634 µM and the TGI [3] was over 21.6 µM.
For `Cc1c(C)c2c(c(C)c1OCC(=O)O)CC[C@@](C)(CCC[C@@H](C)CCC[C@@H](C)CCCC(C)C)O2`, the GI50 [1] was 71.7 µM, the TGI [1] was 151 µM and the GI50 [2] was 75.7 µM. It also gave a TGI [2] of 147 µM, a GI50 [3] of 51.7 µM and a TGI [3] of 171 µM.
Compound `COc1cc(-c2cc3ncccc3c3[nH]c(=O)c4cccnc4c23)cc(OC)c1OC` has a GI50 [1] of 0.427 µM, a TGI [1] of 55.2 µM and a GI50 [2] of 0.907 µM. For the same compound, the TGI [2] was over 100 µM, the GI50 [3] was 0.789 µM and the TGI [3] was over 100 µM.
Compound `Nc1nc2c(ccc3ccccc32)s1` has a GI50 [1] of over 100 µM, a TGI [1] of over 100 µM and a GI50 [2] of over 100 µM. For the same compound, the TGI [2] was over 100 µM, the GI50 [3] was 95.5 µM and the TGI [3] was over 100 µM.
With `O=C(NC(=O)c1cn(CCN2CCN(C(=O)NCCCCCCNC(=O)N3CCN(CCn4cc(C(=O)NC(=O)OCc5ccccc5)c(=O)[nH]c4=O)CC3)CC2)c(=O)[nH]c1=O)OCc1ccccc1` the TGI [5] was over 100 µM, the TGI [6] was over 100 µM and the TGI [9] was over 100 µM.
`O=C(Nc1ccc2c(c1)OCCO2)C(=O)c1c[nH]c2ccccc12` was tested, and the GI50 [1] was 3.48 µM, the TGI [1] was 38.1 µM and the GI50 [2] was 1.95 µM. The TGI [2] was 11.8 µM, the GI50 [3] was 9.86 µM and the TGI [3] was over 100 µM.
`Nc1ccc(-c2ccc3ncc4ccc(=O)n(-c5cccc(C(F)(F)F)c5)c4c3c2)cn1` showed a GI50 [1] of under 0.01 µM, a TGI [1] of 0.232 µM and a GI50 [2] of under 0.01 µM. For the same compound, the TGI [2] was 30.8 µM, the GI50 [3] was under 0.01 µM and the TGI [3] was under 0.01 µM.
Work on `C/C(O)=C(\N=O)C(=O)NCc1ccccc1` yielded a TGI [5] of over 100 µM, a TGI [6] of over 100 µM and a TGI [7] of over 100 µM. The TGI [9] was over 100 µM.
`O=C(Oc1ccccc1)C(Br)C(Br)c1ccccc1` (centres undefined) showed a GI50 [1] of 11.7 µM, a TGI [1] of 25.6 µM and a GI50 [2] of 3.18 µM. For the same compound, the TGI [2] was 9.38 µM, the GI50 [3] was 2.62 µM and the TGI [3] was 6.23 µM.
`CC(C)C(=S)N(C)O` was tested, and the TGI [5] was over 100 µM, the TGI [6] was 19.3 µM and the TGI [7] was over 100 µM. The TGI [9] was over 100 µM.
